According to patent US20060189684A1, “3-Phenylfuran-2-one derivatives as cox-2 inhibitor” (priority 2003, published 2006):
pIC50: −log10 of the molar value.

Assays:
COX-1 = molecular target: T1, COX-1 (Homo sapiens, UniProt P23219); test: COX-1 activity in human whole blood (TXB2, calcium ionophore A23187); type: cell-based; conditions: 24 h at 37° C., A23187 25 μM, TXB2 by ELISA
T1 construct: from tissue; host or cells: fresh heparinized human whole blood from healthy volunteers
Procedure: (§1) COX-1 and COX-2 Activities in Human Whole Blood
Fresh blood from healthy volunteers who had not taken any non-steroidal anti-inflammatory drugs for at least 7 days prior to blood extraction was collected in heparinized tubes (20 units of heparin per ml). For the COX-1 activity determination, 500 μl aliquots of blood were incubated with either 5 μl vehicle (dimethylsulphoxide) or 5 μl of a test compound solution for 24 h at 37° C. Calcium ionophore A23187 (25 μM) was added 20 min before the incubation was ended. Plasma was separated by centrifugation (10 min at 13000 rpm) and kept at −30° C. until TXB2 levels were measured using an enzyme immunoassay kit (ELISA).
The effect of the compounds was evaluated by incubating each compound at five to six different concentrations with triplicate determinations. IC50 values were obtained by non-linear regression using InPlot, GraphPad software on an IBM computer.

COX-2 = molecular target: T2, COX-2 (Homo sapiens, UniProt P35354); test: COX-2 activity in human whole blood (PGE2, LPS-induced); type: cell-based; conditions: for pIC50: human whole blood, LPS 10 μg/ml, 24 h at 37° C., PGE2 by ELISA; for Ratio COX-1/COX-2: ratio of human whole blood IC50 values
T2 construct: blood were incubated in the presence of LPS (10 μg/ml) for 24 h at 37° C. in order to induce the COX-2 expression; from tissue; host or cells: fresh heparinized human whole blood from healthy volunteers, LPS-stimulated
T2 sequence (P35354 18-604): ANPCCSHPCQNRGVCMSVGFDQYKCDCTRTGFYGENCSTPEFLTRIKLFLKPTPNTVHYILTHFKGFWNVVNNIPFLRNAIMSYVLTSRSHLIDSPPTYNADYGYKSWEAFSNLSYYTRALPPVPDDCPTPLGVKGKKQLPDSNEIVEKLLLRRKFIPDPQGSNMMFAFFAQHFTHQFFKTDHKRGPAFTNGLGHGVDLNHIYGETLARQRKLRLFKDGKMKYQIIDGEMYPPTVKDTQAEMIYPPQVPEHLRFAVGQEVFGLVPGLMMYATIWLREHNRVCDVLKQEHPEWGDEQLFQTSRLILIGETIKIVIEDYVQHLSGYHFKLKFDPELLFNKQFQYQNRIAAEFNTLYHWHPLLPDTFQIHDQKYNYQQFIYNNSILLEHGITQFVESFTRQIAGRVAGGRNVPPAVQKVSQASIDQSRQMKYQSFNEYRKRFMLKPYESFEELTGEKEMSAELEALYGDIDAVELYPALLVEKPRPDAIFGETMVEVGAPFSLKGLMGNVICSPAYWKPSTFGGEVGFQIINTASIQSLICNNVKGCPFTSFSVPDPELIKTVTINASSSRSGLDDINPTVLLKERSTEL
Procedure: as §1
For the COX-2 activity determination, 500 μl aliquots of blood were incubated in the presence of LPS (10 μg/ml) for 24 h at 37° C. in order to induce the COX-2 expression (Patriagnani et al., J. Pharm. Exper. Ther. 271; 1705-1712 (1994)). Plasma was separated by centrifugation (10 min at 13000 rpm) and kept at −30° C. until PGE2 levels were measured using an enzyme immunoassay kit (ELISA). The effects of inhibitors were studied by incubating each compound (5 μl aliquots) at five to six different concentrations with triplicate determinations in the presence of LPS for 24 hours. IC50 values were obtained by non-linear regression using InPlot, GraphPad software on an IBM computer.

T1 sequence (P23219 24-599): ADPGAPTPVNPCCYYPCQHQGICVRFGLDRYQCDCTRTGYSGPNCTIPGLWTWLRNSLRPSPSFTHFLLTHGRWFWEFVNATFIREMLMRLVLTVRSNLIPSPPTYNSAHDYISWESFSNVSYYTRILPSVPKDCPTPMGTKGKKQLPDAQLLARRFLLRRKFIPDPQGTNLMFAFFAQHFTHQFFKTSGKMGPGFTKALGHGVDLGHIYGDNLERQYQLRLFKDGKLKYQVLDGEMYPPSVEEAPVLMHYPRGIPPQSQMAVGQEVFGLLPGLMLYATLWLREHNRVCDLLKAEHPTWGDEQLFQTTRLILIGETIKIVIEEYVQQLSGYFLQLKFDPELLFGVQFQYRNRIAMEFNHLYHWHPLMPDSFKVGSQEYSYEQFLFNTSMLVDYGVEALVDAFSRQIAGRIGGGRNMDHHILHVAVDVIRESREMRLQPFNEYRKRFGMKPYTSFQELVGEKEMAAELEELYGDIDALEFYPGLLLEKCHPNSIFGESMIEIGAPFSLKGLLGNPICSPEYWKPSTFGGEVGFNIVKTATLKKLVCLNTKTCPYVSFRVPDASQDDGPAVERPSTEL

| SMILES | pIC50 (COX-1) | pIC50 (COX-2) | Ratio COX-1/COX-2 (COX-2) |
| --- | --- | --- | --- |
| C[S+]([O-])c1ccc(C2=C(c3ccccc3)C(=O)OC2)cc1 (racemic) [4-[4(methylsulfinyl)phenyl]-3-phenylfuran-2(5H)-one (racemate), 4-[4-(Methylsulfinyl)phenyl)-3-phenylfuran-2(6H)-one] | 4.48 | – | – |
| C[S@@+]([O-])c1ccc(C2=C(c3ccccc3)C(=O)OC2)cc1 [4-[4(methylsulfinyl)phenyl]-3-phenylfuran-2(5H)-one (Enantiomer 1a)] | 4.49 | 5.37 | 7.6 |
| C[S@+]([O-])c1ccc(C2=C(c3ccccc3)C(=O)OC2)cc1 [4-[4(methylsulfinyl)phenyl]-3-phenylfuran-2(5H)-one (Enantiomer 1b)] | 4.42 | 5.68 | 18 |
